Data on 39 compounds can be found in patent US7700592B2, “α2C adrenoreceptor agonists” (Schering Corporation, priority 2005, dated 2010).

For this assay, the target named is T1, α2C receptor (Homo sapiens, UniProt P18825).
T1 sequence (P18825 1-462): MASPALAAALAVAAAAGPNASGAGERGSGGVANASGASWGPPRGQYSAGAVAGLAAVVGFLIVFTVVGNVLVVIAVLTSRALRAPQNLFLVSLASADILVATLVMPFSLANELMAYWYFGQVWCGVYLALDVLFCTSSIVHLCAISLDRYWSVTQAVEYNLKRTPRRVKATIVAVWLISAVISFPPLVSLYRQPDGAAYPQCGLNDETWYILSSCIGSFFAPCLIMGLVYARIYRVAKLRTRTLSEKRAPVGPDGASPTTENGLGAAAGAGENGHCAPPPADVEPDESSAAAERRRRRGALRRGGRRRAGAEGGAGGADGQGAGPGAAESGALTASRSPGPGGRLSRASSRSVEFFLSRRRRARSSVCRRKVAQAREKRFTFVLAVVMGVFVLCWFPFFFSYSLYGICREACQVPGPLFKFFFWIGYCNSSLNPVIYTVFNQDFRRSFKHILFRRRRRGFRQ
The assay can be described thus: GTPγS assay, efficacy agonist activity (Emax) for α2C. It counts as biochemical. To be noted: active agonist = efficacy at α2C ≧30% Emax; functionally selective = additionally efficacy at α2A ≦30% Emax (GTPγS assay). The source says: For the purposes of this present invention, a compound is defined to be an active agonist of the α2C receptor subtype if the compound's efficacy at the α2C receptor is ≧30% Emax (GTPγS assay). A compound is a functionally selective agonist of the α2C receptor subtype over the α2A receptor subtype if the compound's efficacy at the α2C receptor is ≧30% Emax (GTPγS assay) and its efficacy at the α2A receptor is ≦30% Emax (GTPγS assay).
Efficacy agonist activity values (Emax, GTPγS assay) for α2C were determined by following the general procedure detailed by Umland et al (“Receptor reserve analysis of the human α2c-adrenoceptor using [^35S]GTPγS and cAMP functional assays” European Journal of Pharmacology 2001, 411, 211-221). For the purposes of the present invention, a compound is defined to be an active agonist of the α2C receptor subtype if the compound's efficacy at the α2C receptor is ≧30% Emax (GTPγS assay). A compound is a functionally selective agonist of the α2C receptor subtype over the α2A receptor subtype if the compound's efficacy at the α2C receptor is […] Emax (GTPγS assay) and its efficacy at the α2A receptor is ≦30% Emax (GTPγS assay).
As for `CCN(c1ccc2c(c1)N(Cc1c[nH]cn1)CCO2)c1ncc([N+](=O)[O-])s1` [Compound 331], the “Efficacy agonist activity (Emax, GTPγS assay) for α2C: evaluated as active or functionally selective agonist” value is given as “active or functionally selective agonists of the α2C receptor subtype”. For the compound `COCCCOC(=O)Nc1ccc2c(c1)N(Cc1c[nH]cn1)CCO2` [Compound 246], the “Efficacy agonist activity (Emax, GTPγS assay) for α2C: evaluated as active or functionally selective agonist” value is given as “active or functionally selective agonists of the α2C receptor subtype”.

For the compound `O=C(Nc1ccc2c(c1)N(Cc1c[nH]cn1)CCO2)OCC1CCC1` [Compound 315], the “Efficacy agonist activity (Emax, GTPγS assay) for α2C: evaluated as active or functionally selective agonist” value is listed as “active or functionally selective agonists of the α2C receptor subtype”. In the case of `c1ccc2c(c1)OCCN2Cc1c[nH]cn1` [Compound 1], the “Efficacy agonist activity (Emax, GTPγS assay) for α2C: evaluated as active or functionally selective agonist” value is recorded as “active or functionally selective agonists of the α2C receptor subtype”.

Turning to `O=[N+]([O-])c1ccc2c(c1)N(Cc1c[nH]cn1)CCO2` [Compound 3D], the “Efficacy agonist activity (Emax, GTPγS assay) for α2C: evaluated as active or functionally selective agonist” value is “active or functionally selective agonists of the α2C receptor subtype”. Consider `N=C(N)c1ccc2c(c1)N(Cc1c[nH]cn1)CCO2` [Compound 13], for which the “Efficacy agonist activity (Emax, GTPγS assay) for α2C: evaluated as active or functionally selective agonist” value is listed as “active or functionally selective agonists of the α2C receptor subtype”. Consider `CCN(c1ccc2c(c1)N(Cc1c[nH]cn1)CCO2)c1ccccn1` [Compound 326], for which the “Efficacy agonist activity (Emax, GTPγS assay) for α2C: evaluated as active or functionally selective agonist” value is given as “active or functionally selective agonists of the α2C receptor subtype”. In the case of `CCN(C(=O)OCc1ccccn1)c1ccc2c(c1)N(Cc1c[nH]cn1)CCO2` [Compound 64] it was “active or functionally selective agonists of the α2C receptor subtype”; in that of `CNC(=O)N(C)c1cc(Cl)c2c(c1)N(Cc1c[nH]cn1)CCO2` [Compound 232], “active or functionally selective agonists of the α2C receptor subtype”; in that of `COC(=O)Nc1cc(F)c2c(c1)N(Cc1c[nH]cn1)CCO2` [Compound 19], “active or functionally selective agonists of the α2C receptor subtype”.

Take `COCCOC(=O)N(C)c1ccc2c(n1)N(Cc1c[nH]cn1)CCO2` [Compound 231]: the “Efficacy agonist activity (Emax, GTPγS assay) for α2C: evaluated as active or functionally selective agonist” value was “active or functionally selective agonists of the α2C receptor subtype”. Regarding `COC(=O)Nc1ccc2c(c1)N(CCc1c[nH]cn1)CCO2` [Compound 139], the “Efficacy agonist activity (Emax, GTPγS assay) for α2C: evaluated as active or functionally selective agonist” value was “active or functionally selective agonists of the α2C receptor subtype”. For the compound `c1c[nH]c(-c2ccc3c(c2)N(Cc2c[nH]cn2)CCO3)c1` [Compound 15], the “Efficacy agonist activity (Emax, GTPγS assay) for α2C: evaluated as active or functionally selective agonist” value is recorded as “active or functionally selective agonists of the α2C receptor subtype”.

As to `CCN(C(=O)OC)c1cc(F)c2c(c1)N(Cc1c[nH]cn1)CCO2` [Compound 178], the “Efficacy agonist activity (Emax, GTPγS assay) for α2C: evaluated as active or functionally selective agonist” value was “active or functionally selective agonists of the α2C receptor subtype”. In the case of `CCN(C(=O)NCc1ccco1)c1ccc2c(c1)N(Cc1c[nH]cn1)CCO2` [Compound 274] it was “active or functionally selective agonists of the α2C receptor subtype”. Take `CCN(C(=O)NC)c1cc(Cl)c2c(c1)N(Cc1c[nH]cn1)CCO2` [Compound 236]: the “Efficacy agonist activity (Emax, GTPγS assay) for α2C: evaluated as active or functionally selective agonist” value is reported as “active or functionally selective agonists of the α2C receptor subtype”.

On to `CCN(C(=O)NC)c1ccc2c(c1)N(C(C#N)c1c[nH]cn1)CCO2` (stereo not drawn) [Compound 169], for which the “Efficacy agonist activity (Emax, GTPγS assay) for α2C: evaluated as active or functionally selective agonist” value was “active or functionally selective agonists of the α2C receptor subtype”. Regarding `COC(=O)Nc1cc2c(cc1F)OCCN2Cc1c[nH]cn1` [Compound 21], the “Efficacy agonist activity (Emax, GTPγS assay) for α2C: evaluated as active or functionally selective agonist” value is “active or functionally selective agonists of the α2C receptor subtype”. In the case of `COC(=O)Nc1ccc2c(c1)N(Cc1c[nH]cn1)CCO2` [Compound 3] it was “active or functionally selective agonists of the α2C receptor subtype”.

`Cc1cc([N+](=O)[O-])cc2c1OCCN2Cc1c[nH]cn1` [Compound 129]: the “Efficacy agonist activity (Emax, GTPγS assay) for α2C: evaluated as active or functionally selective agonist” value is reported as “active or functionally selective agonists of the α2C receptor subtype”.

On to `CNC(=O)N(C)c1ccc2c(c1)N(Cc1c[nH]cn1)CCO2` [Compound 6], for which the “Efficacy agonist activity (Emax, GTPγS assay) for α2C: evaluated as active or functionally selective agonist” value is “active or functionally selective agonists of the α2C receptor subtype”.

On to `CCN(C(C)=O)c1ccc2c(c1)N(Cc1c[nH]cn1)CCO2` [Compound 158], for which the “Efficacy agonist activity (Emax, GTPγS assay) for α2C: evaluated as active or functionally selective agonist” value is listed as “active or functionally selective agonists of the α2C receptor subtype”. For `O=C(Nc1ccc2c(c1)N(Cc1c[nH]cn1)CCO2)OCc1ccc2sccc2c1` [Compound 316], the “Efficacy agonist activity (Emax, GTPγS assay) for α2C: evaluated as active or functionally selective agonist” value was “active or functionally selective agonists of the α2C receptor subtype”. Take `CCCCCCNC(=O)N(C)c1ccc2c(c1)N(Cc1c[nH]cn1)CCO2` [Compound 273]: the “Efficacy agonist activity (Emax, GTPγS assay) for α2C: evaluated as active or functionally selective agonist” value is listed as “active or functionally selective agonists of the α2C receptor subtype”. In the case of `N#Cc1cc(F)c2c(c1)N(Cc1c[nH]cn1)CCO2` [Compound 125] it was “active or functionally selective agonists of the α2C receptor subtype”.

For `CONC(=O)N(C)c1ccc2c(c1)N(Cc1c[nH]cn1)CCO2` [Compound 243], the “Efficacy agonist activity (Emax, GTPγS assay) for α2C: evaluated as active or functionally selective agonist” value is “active or functionally selective agonists of the α2C receptor subtype”.

`COCCOCC(=O)N(C)c1ccc2c(c1)N(Cc1c[nH]cn1)CCO2` [Compound 260]: the “Efficacy agonist activity (Emax, GTPγS assay) for α2C: evaluated as active or functionally selective agonist” value was “active or functionally selective agonists of the α2C receptor subtype”. Turning to `COC(=O)Nc1cc(C)c2c(c1)N(Cc1c[nH]cn1)CCO2` [Compound 130], the “Efficacy agonist activity (Emax, GTPγS assay) for α2C: evaluated as active or functionally selective agonist” value is listed as “active or functionally selective agonists of the α2C receptor subtype”.

Regarding `CCN(C(=O)OCc1cn2ccccc2n1)c1ccc2c(c1)N(Cc1c[nH]cn1)CCO2` [Compound 290], the “Efficacy agonist activity (Emax, GTPγS assay) for α2C: evaluated as active or functionally selective agonist” value is reported as “active or functionally selective agonists of the α2C receptor subtype”. With `CCN(C(=O)OCc1ccncc1N)c1ccc2c(c1)N(Cc1c[nH]cn1)CCO2` [Compound 279], the “Efficacy agonist activity (Emax, GTPγS assay) for α2C: evaluated as active or functionally selective agonist” value was “active or functionally selective agonists of the α2C receptor subtype”. For the compound `O=[N+]([O-])c1cc(F)c2c(c1)N(Cc1c[nH]cn1)CCO2` [Compound 19D], the “Efficacy agonist activity (Emax, GTPγS assay) for α2C: evaluated as active or functionally selective agonist” value is “active or functionally selective agonists of the α2C receptor subtype”. For `CCCOC(=O)N(C)c1ccc2c(c1)N(Cc1c[nH]cn1)CCO2` [Compound 257], the “Efficacy agonist activity (Emax, GTPγS assay) for α2C: evaluated as active or functionally selective agonist” value is “active or functionally selective agonists of the α2C receptor subtype”. In the case of `O=[N+]([O-])c1ccc2c(c1)N(CCc1c[nH]cn1)CCO2` [Compound 37] it was “active or functionally selective agonists of the α2C receptor subtype”; in that of `CCNC(=O)N(CC)c1ccc2c(c1)N(Cc1c[nH]cn1)CCO2` [Compound 245], “active or functionally selective agonists of the α2C receptor subtype”; in that of `FC(F)(F)c1ccc2c(c1)N(Cc1c[nH]cn1)CCS2` [Compound 145], “active or functionally selective agonists of the α2C receptor subtype”. Turning to `COCC(=O)N(C)c1ccc2c(c1)N(Cc1c[nH]cn1)CCO2` [Compound 242], the “Efficacy agonist activity (Emax, GTPγS assay) for α2C: evaluated as active or functionally selective agonist” value is listed as “active or functionally selective agonists of the α2C receptor subtype”. In the case of `c1ccc2c(c1)NCCN2Cc1c[nH]cn1` [Compound 26A] it was “active or functionally selective agonists of the α2C receptor subtype”; in that of `CCN(C(=O)NCc1ccccc1)c1ccc2c(c1)N(Cc1c[nH]cn1)CCO2` [Compound 280], “active or functionally selective agonists of the α2C receptor subtype”. Take `CCCCOC(=O)Nc1ccc2c(c1)N(Cc1c[nH]cn1)CCO2` [Compound 272]: the “Efficacy agonist activity (Emax, GTPγS assay) for α2C: evaluated as active or functionally selective agonist” value is given as “active or functionally selective agonists of the α2C receptor subtype”.
